Assay results as given in patent US12448369B2 (Edgewise Therapeutics, Inc., priority 2023, dated 2025).

Tests used:
[1] = biological target: T1, Porcine ventricle myofibrils (ventricular myosin ATPase) (Sus scrofa, UniProt P79293); experiment: Myofibril ATPase assay, porcine ventricle myofibrils; type: biochemical, porcine (Yucatan minipigs); conditions: porcine ventricle myofibrils
T1 construct: Myofibrils from porcine cardiac muscle was isolated from the left ventricle of Yucatan minipigs; tissue Exemplar Genetics; host or cells: left ventricle of Yucatan minipigs, myofibrils prepared in house
T1 sequence (P79293 whole entry): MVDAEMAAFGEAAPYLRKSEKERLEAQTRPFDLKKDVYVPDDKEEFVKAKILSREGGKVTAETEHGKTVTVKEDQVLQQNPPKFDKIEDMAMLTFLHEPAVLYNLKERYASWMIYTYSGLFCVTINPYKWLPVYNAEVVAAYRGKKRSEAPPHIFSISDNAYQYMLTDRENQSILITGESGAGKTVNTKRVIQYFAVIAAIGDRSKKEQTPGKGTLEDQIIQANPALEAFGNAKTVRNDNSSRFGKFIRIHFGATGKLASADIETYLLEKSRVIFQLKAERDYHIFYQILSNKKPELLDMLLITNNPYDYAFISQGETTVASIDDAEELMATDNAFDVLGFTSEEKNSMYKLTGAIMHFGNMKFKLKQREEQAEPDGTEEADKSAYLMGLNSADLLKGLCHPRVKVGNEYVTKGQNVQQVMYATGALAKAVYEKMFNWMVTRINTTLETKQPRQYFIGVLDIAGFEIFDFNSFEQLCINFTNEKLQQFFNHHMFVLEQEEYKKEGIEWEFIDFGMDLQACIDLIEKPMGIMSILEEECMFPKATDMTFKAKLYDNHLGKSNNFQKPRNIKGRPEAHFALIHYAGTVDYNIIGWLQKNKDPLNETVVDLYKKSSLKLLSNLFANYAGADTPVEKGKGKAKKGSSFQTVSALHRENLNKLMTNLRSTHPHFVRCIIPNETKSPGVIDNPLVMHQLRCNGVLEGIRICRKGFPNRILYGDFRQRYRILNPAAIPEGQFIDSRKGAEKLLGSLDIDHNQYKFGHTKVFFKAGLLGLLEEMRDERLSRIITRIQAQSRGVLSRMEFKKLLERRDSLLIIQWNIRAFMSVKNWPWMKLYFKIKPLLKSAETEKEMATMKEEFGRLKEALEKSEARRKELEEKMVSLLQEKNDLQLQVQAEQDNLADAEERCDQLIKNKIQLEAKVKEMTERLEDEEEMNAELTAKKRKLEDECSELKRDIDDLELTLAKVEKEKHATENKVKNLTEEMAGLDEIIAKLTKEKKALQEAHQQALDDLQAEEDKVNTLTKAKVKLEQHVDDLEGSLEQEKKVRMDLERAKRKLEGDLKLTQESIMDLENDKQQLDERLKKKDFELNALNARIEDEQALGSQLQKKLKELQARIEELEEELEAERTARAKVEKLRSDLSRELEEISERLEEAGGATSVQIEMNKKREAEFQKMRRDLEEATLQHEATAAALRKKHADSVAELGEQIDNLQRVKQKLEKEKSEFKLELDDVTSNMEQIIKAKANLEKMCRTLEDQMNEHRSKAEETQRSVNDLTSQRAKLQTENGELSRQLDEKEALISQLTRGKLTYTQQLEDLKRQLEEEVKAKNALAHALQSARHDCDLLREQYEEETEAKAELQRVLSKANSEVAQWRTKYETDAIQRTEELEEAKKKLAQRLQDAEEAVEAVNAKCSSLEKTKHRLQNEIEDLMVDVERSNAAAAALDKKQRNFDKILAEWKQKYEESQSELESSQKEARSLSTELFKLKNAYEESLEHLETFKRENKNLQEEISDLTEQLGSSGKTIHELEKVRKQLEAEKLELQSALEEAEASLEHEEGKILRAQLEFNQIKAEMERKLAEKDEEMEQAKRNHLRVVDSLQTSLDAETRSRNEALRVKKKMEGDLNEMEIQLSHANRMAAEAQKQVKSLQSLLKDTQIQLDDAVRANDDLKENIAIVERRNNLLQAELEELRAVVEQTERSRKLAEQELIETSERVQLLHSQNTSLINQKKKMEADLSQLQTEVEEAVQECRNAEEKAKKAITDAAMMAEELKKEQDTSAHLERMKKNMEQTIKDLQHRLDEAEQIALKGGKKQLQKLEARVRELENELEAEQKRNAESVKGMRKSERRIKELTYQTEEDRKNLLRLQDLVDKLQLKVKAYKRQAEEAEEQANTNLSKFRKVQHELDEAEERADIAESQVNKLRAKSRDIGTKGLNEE
Outline: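 Test compounds acted on myofibrils isolated from the left ventricle of Yucatan minipigs. ADP formation was coupled via pyruvate kinase/lactate dehydrogenase to NADH oxidation, monitored kinetically at 340 nm over 75 min. Rates relative to vehicle were fitted with a 4-parameter logistic model, reported as Y75 (25% inhibition) or Y125 (activation) concentrations.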

[2] = tested on: Porcine atria myofibrils (atrial myosin ATPase); experiment: Myofibril ATPase assay, porcine atria myofibrils; type: biochemical; conditions: porcine atria myofibrils
Outline: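 Y75 (25% inhibition) or Y125 (activation) values come from 4-parameter logistic fits of vehicle-normalized rates. Rates are linear-regression slopes of NADH absorbance at 340 nm, read kinetically over 75 min, with ADP coupled to NADH oxidation via pyruvate kinase/lactate dehydrogenase.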

[3] = tested on: Rabbit Psoas myofibrils (skeletal myosin ATPase); experiment: Myofibril ATPase assay, rabbit psoas (skeletal) myofibrils; type: biochemical; conditions: rabbit psoas myofibrils
Outline: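 Values are concentrations giving 75% (Y75) or 125% (Y125) of vehicle ATPase activity, from 4-parameter logistic fits of normalized rates. Rates came from linear regression of A340 over 75 min, NADH oxidation coupled to ADP via PK-LDH. Enzyme source: skeletal myofibrils from rabbit psoas, pH 7.0 pCa buffer.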

[4] = Y75 value (75% activity relative to no compound)
[5] = ‡ Y125 value, not a Y75 value (125% activity relative to no compound)

Structure (SMILES) | Ventricular EC25 ([1]; Y75 value) [µM] | Atrial EC25 [2, 4] [µM] | Skeletal EC25 ([3]; Y75 value) [µM] | Ventricular EC25 ([1]; Y75 value (no ‡ mark)) [µM] | Atrial EC25 ([2]; Y75 value (no ‡ mark)) [µM] | Skeletal EC25 ([3]; Y75 value (no ‡ mark)) [µM] | Ventricular EC25 [1, 5] | Skeletal EC25 [3, 5]
Cc1c(CC(=O)N[C@H](C)c2cnc(C#N)nc2)c(=O)[nH]c2ccc(C(F)(F)F)nc12 [compound 457] | 100.00 | 30.66 | 100.00 | – | – | – | – | –
C[C@H](NC(=O)Cc1cc2c(C3CC3)nccc2[nH]c1=O)c1ccc(F)cc1F [compound 432] | 80.53 | 16.07 | 0.47 | – | – | – | – | –
Cc1nccc2[nH]c(=O)c(C(F)(F)C(=O)N[C@@H](C)c3ccc(C#N)cc3F)c(C)c12 (single isomer, unassigned) [compound 3508] | 0.29 | 0.22 | 0.07 | – | – | – | – | –
Cc1nc(C#N)cnc1[C@@H](C)NC(=O)Cc1c(C)c2c(F)c(F)ccc2[nH]c1=O [compound 1139] | – | – | – | 0.14 | 0.14 | 0.03 | – | –
Cc1c(CC(=O)N[C@H](CO)c2ncc(C#N)cc2F)c(=O)[nH]c2cnnc(C#N)c12 [compound 163] | 100.00 | 0.94 | 12.34 | – | – | – | – | –
C[C@@H](NC(=O)Cc1cc2cc(F)ccc2[nH]c1=O)c1ncc(C#N)cn1 (single isomer, unassigned) [compound 2029] | – | – | – | 18.01 | 1.26 | 3.21 | – | –
Cc1nccc2[nH]c(=O)c(CC(=O)N[C@H](CO)c3ncc(F)cc3F)c(C)c12 (single isomer, unassigned) [compound 303] | 100.00 | 100.00 | 40.83 | – | – | – | – | –
Cc1c(CC(=O)N[C@@H](CO)c2ccc(F)cc2F)c(=O)[nH]c2ccnc(OC3CC3)c12 [compound 200] | 100.00 | 3.03 | 0.19 | – | – | – | – | –
Cc1ccncc1[C@@H](C)NC(=O)Cc1c(C)c2c(C)c(F)ccc2[nH]c1=O [compound 1046] | – | – | – | 0.14 | 0.06 | 0.04 | – | –
Cc1c(CC(=O)N[C@@H](C)c2ccc(F)cc2F)c(=O)[nH]c2ccnc(Cl)c12 [compound 402] | 0.19 | 0.04 | 0.02 | – | – | – | – | –
Cc1nccc2[nH]c(=O)c(CC(=O)N[C@H]3CCc4cc(F)cc(F)c43)c(C)c12 [compound 501] | 78 | 76 | 3.4 | – | – | – | – | –
Cc1nccc2[nH]c(=O)c([C@@H](C)C(=O)N[C@@H](C)c3ccc(F)cc3F)c(C(F)(F)F)c12 (single isomer, unassigned) [compound 410] | 100.00 | 5.46 | 0.76 | – | – | – | – | –
Cc1c(C2(C(=O)N[C@H](C)c3ncc(C#N)cc3F)CC2)c(=O)[nH]c2ccc(F)c(C(F)(F)F)c12 (single isomer, unassigned) [compound 4801] | – | – | – | 100.00 | 0.28 | 0.28 | – | –
C[C@H](NC(=O)Cc1c(C2CC2)c2c(F)c(F)ccc2[nH]c1=O)c1ccc(C#N)cn1 [compound 26] | – | – | – | 1.40 | 6.13 | 0.21 | – | –
C[C@@H](NC(=O)Cc1c(C2CC2)c2cc(F)ccc2[nH]c1=O)c1ncc(C#N)cc1F [compound 39] | – | – | – | 100.00 | 100.00 | 100.00 | – | –
Cc1c(CC(=O)N[C@H](CO)c2ccc(C#N)cc2F)c(=O)[nH]c2ccnc(C#N)c12 (single isomer, unassigned) [compound 241] | 4.21 | 0.69 | 0.17 | – | – | – | – | –
COc1nccc2[nH]c(=O)c(CC(=O)N[C@@H](C)c3ccc(F)cc3F)c(C)c12 [compound 385] | 0.33 | 0.06 | 0.03 | – | – | – | – | –

Structure (SMILES) | Ventricular EC25 ([1]; Y75 value) [µM] | Atrial EC25 [2, 4] [µM] | Skeletal EC25 ([3]; Y75 value) [µM] | Ventricular EC25 ([1]; Y75 value (no ‡ mark)) [µM] | Atrial EC25 ([2]; Y75 value (no ‡ mark)) [µM] | Skeletal EC25 ([3]; Y75 value (no ‡ mark)) [µM] | Ventricular EC25 [1, 5] | Skeletal EC25 [3, 5]
Cc1c(CC(=O)N[C@H](C)c2ccc(C#N)cn2)c(=O)[nH]c2ccc(OC(F)(F)F)nc12 [compound 449] | 100.00 | 100.00 | 100.00 | – | – | – | – | –
C#Cc1nccc2[nH]c(=O)c(CC(=O)N[C@@H](C)c3ccc(F)cc3F)cc12 [compound 431] | 50.88 | 11.13 | 0.80 | – | – | – | – | –
Cc1c(C(F)(F)C(=O)N[C@@H](C)c2cccc(C#N)n2)c(=O)[nH]c2ccc(F)cc12 (single isomer, unassigned) [compound 2566] | – | – | – | – | 100.00 | – | 100.00‡ μM | 100.00‡ μM
Cc1c(CC(=O)N[C@H]2COCc3cc(C#N)cnc32)c(=O)[nH]c2ccc(F)cc12 [compound 1057] | – | – | – | 100.00 | 100.00 | 21 | – | –
Cc1c(C(F)(F)C(=O)N[C@H](C)c2cc(C#N)ccn2)c(=O)[nH]c2ccc(F)cc12 (single isomer, unassigned) [compound 2575] | – | – | – | 20.79 | 16.13 | 14.65 | – | –
Cc1c(CC(=O)N[C@H](CO)c2ncc(F)cc2F)c(=O)[nH]c2ccnc(C#N)c12 [compound 261] | 100.00 | 100.00 | 26.68 | – | – | – | – | –
Cc1c(C2(C(=O)N[C@H](C)c3cccc(C#N)n3)CC2)c(=O)[nH]c2ccc(F)cc12 (single isomer, unassigned) [compound 2579] | – | – | – | 100.00 | 100.00 | 100.00 | – | –
Cc1cc(C#N)nnc1[C@H](C)NC(=O)Cc1c(C)c2c(F)c(F)ccc2[nH]c1=O [compound 1136] | – | – | – | 0.12 | 0.14 | 0.05 | – | –
Cc1nccc2[nH]c(=O)c(CC(=O)N[C@H](C)c3cnc(C#N)cn3)c(C)c12 [compound 486] | 1.47 | 1.49 | 0.20 | – | – | – | – | –
Cc1c(CC(=O)N[C@@H](C)c2ccc(C#N)cn2)c(=O)[nH]c2cccc(F)c12 [compound 54] | – | – | – | 1.53 | 0.11 | 0.04 | – | –
Cc1c(CC(=O)N[C@H](CO)c2ccc(C#N)cc2F)c(=O)[nH]c2ccnc(OC3CC3)c12 [compound 203] | 100.00 | 100.00 | 1.10 | – | – | – | – | –
Cc1nccc2[nH]c(=O)c(CC(=O)N[C@@H](C)c3ccc(C#N)nn3)c(C)c12 [compound 485] | 100.00 | 48.27 | 100.00 | – | – | – | – | –
Cc1nccc2[nH]c(=O)c([C@H](C)C(=O)N[C@@H](C)c3ccc(F)cc3F)c(C)c12 (single isomer, unassigned) [compound 398] | 59.63 | 2.73 | 0.23 | – | – | – | – | –
Cc1c(CC(=O)N[C@H](C)c2ncc(C#N)cn2)c(=O)[nH]c2ccc(F)c(Cl)c12 (single isomer, unassigned) [compound 2055] | – | – | – | 0.26 | 0.06 | 0.11 | – | –
Cc1nc(C#N)cnc1[C@@H](C)NC(=O)Cc1c(C)c2nc(C(F)(F)F)ccc2[nH]c1=O (single isomer, unassigned) [compound 138] | 1.17 | 0.35 | 2.85 | – | – | – | – | –
Cc1c(CC(=O)N[C@@H](C)c2ccc(F)cc2F)c(=O)[nH]c2ccc(C(F)(F)F)nc12 [compound 393] | 0.42 | 2.46 | 0.02 | – | – | – | – | –
